According to BindingDB's records for doi:10.1080/14756360310001640913 (Saarland University, 2004):

What follows are compounds tested against T1, Steroid 17-alpha-hydroxylase/17,20 lyase (Homo sapiens, UniProt P05093) (assay: CYP17 Assay). Details: pH 7.4; 37 °C.
T1 sequence (P05093 whole entry): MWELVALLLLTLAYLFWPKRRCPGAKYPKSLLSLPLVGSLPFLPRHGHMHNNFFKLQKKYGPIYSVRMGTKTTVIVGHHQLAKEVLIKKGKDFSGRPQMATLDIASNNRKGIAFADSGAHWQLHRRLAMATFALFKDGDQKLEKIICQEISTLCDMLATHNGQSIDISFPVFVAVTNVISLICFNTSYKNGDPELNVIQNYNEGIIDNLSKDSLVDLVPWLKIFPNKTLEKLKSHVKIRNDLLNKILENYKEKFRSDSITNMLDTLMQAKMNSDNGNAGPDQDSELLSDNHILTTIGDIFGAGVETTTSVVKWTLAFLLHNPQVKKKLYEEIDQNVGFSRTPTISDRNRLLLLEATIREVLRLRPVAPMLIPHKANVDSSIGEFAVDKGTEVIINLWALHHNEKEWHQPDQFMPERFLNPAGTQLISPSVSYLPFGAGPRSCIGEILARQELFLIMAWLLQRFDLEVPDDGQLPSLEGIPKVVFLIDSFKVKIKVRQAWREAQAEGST

| Structure (SMILES) | IC50 |
| --- | --- |
| COc1ccc2c(c1)CCC(Cc1cnc[nH]1)=C2C | 0.11 µM |
| Oc1ccc(-c2ccc(Cn3ccnc3)cc2)cc1O [4-[4-(1H-imidazol-1-ylmethyl)phenyl]benzene-1,2-diol] | 0.12 µM |
| COc1cc2c(cc1OC)C(C)=C(Cc1cnc[nH]1)CC2 [5-[(6,7-dimethoxy-1-methyl-3,4-dihydronaphthalen-2-yl)methyl]-1H-imidazole] | 0.49 µM |
| COc1cc2c(cc1O)C(C)=C(Cc1cnc[nH]1)CC2 [dihydronaphthalene derivative] | 1.1 µM |
